One may read the IC50 as the concentration needed to halve the response being measured.

SMILES strings stand for the structures. Some results are limits rather than exact numbers.

The test system of the experiment is LPS-induced TNF-α release in peripheral blood mononuclear cells (PBMCs). The experiment is described as follows: In vitro determination of PDE4 inhibitory activity in the PBMCs assay (LPS-induced TNF-α release). In kind it is cell-based, human. The note with it: PBMC; human PBMCs, LPS 3 ng/ml, 18 hours, TNF-α by ELISA; read-out: PDE4 inhibition (IC50, 50% inhibition of LPS-induced TNF-α release). Here is the method: The assay, which is based on the known inhibitory activity exerted by PDE4 inhibitors on the lipopolyshaccarides (LPS)-induced tumour necrosis factor-alpha (TNF-α release in peripheral blood mononuclear cells (PBMCs), was performed according to a method previously described (Hatzelmann A et al., J. Pharmacol. Exp. Ther., 2001; 297:267-279; and Draheim R et al., J. Pharmacol. Exp. Ther., 2004; 308:555-563, which are incorporated herein by reference in their entireties). Cryopreserved human PBMCs, (100 l/well) were incubated in 96-well plates (10^5 cells/well), for 30 minutes, in the presence or absence (50 microl) of the test compounds whose concentrations ranged from 10^−12 M to 10^−6 M or from […] to 10^−7 M. Subsequently, LPS (3 ng/ml) was added.
After 18 hours of incubation at 37° C. in a humidified incubator under an atmosphere of 95% air and 5% CO2, culture medium was collected and TNF-α measured by ELISA. The results of the tested compounds, representatives of the invention, expressed as mean±95% confidence limits of the molar concentration of the test compound producing 50% inhibition of LPS-induced TNF-α release (IC50) are shown in the following Table: […]
In general terms: In an ELISA, binding on a coated surface is turned into a signal by an enzyme label.
In the case of `CN(C)C(=O)c1cccc(S(=O)(=O)N2CCCC[C@@H]2C(=O)O[C@@H](Cc2c(Cl)c[n+]([O-])cc2Cl)c2ccc(OC(F)F)c(OCC3CC3)c2)c1` [Compound 83, 3,5-dichloro-4-((S)-2-(3-(cyclopropylmethoxy)-4-(difluoromethoxy)phenyl)-2-((R)-1-(3-(dimethylcarbamoyl)phenylsulfonyl)piperidine-2-carbonyloxy)ethyl)pyridine 1-oxide], the IC50 is less than 0.1 nM.

As for `CN1CCN(C(=O)c2ccc(S(=O)(=O)N3CCSC3C(=O)O[C@@H](Cc3c(Cl)c[n+]([O-])cc3Cl)c3ccc(OC(F)F)c(OCC4CC4)c3)cc2)CC1` (stereo partly drawn) [Compound 126, 3,5-dichloro-4-((2S)-2-(3-(cyclopropylmethoxy)-4-(difluoromethoxy)phenyl)-2-(3-(4-(4-methylpiperazine-1-carbonyl)phenylsulfonyl)thiazolidine-2-carbonyloxy)ethyl)pyridine 1-oxide], the IC50 was 0.1 to 1 nM.

In the case of `O=C(O[C@@H](Cc1c(Cl)c[n+]([O-])cc1Cl)c1ccc(OC(F)F)c(OCC2CC2)c1)[C@@H]1SCCN1S(=O)(=O)c1ccc2c(c1)OCCO2` [Compound 201, 3,5-dichloro-4-((S)-2-(3-(cyclopropylmethoxy)-4-(difluoromethoxy)phenyl)-2-((S)-3-(2,3-dihydrobenzo[b][1,4]dioxin-6-ylsulfonyl)thiazolidine-2-carbonyloxy)ethyl)pyridine 1-oxide], the 50% inhibitory concentration (IC50) was 0.1 to 1 nM.

For `NCc1cccc(C(=O)N2CCS[C@H]2C(=O)O[C@@H](Cc2c(Cl)c[n+]([O-])cc2Cl)c2ccc(OC(F)F)c(OCC3CC3)c2)c1` [Compound 21, 4-((S)-2-((S)-3-(3-(aminomethyl)benzoyl)thiazolidine-2-carbonyloxy)-2-(3-(cyclopropylmethoxy)-4-(difluoromethoxy)phenyl)ethyl)-3,5-dichloropyridine 1-oxide], the IC50 lay in the range of 1 to 10 nM.

For the compound `Nc1ccc(S(=O)(=O)N2CCOC(C(=O)O[C@@H](Cc3c(Cl)c[n+]([O-])cc3Cl)c3ccc(OC(F)F)c(OCC4CC4)c3)C2)cc1` (stereo partly drawn) [Compound 139, 4-((2S)-2-(4-(4-aminophenylsulfonyl)morpholine-2-carbonyloxy)-2-(3-(cyclopropylmethoxy)-4-(difluoromethoxy)phenyl)ethyl)-3,5-dichloropyridine 1-oxide], the IC50 was less than 0.1 nM.

In the case of `COc1ccc(S(=O)(=O)N2CCS[C@H]2C(=O)O[C@@H](Cc2c(Cl)c[n+]([O-])cc2Cl)c2ccc(OC(F)F)c(OCC3CC3)c2)cc1C(=O)N(C)C` [Compound 131, 3,5-dichloro-4-((S)-2-(3-(cyclopropylmethoxy)-4-(difluoromethoxy)phenyl)-2-((S)-3-(3-(dimethylcarbamoyl)-4-methoxyphenylsulfonyl)thiazolidine-2-carbonyloxy)ethyl)pyridine 1-oxide], the half-inhibitory concentration (IC50) was less than 0.1 nM.

As to `Cn1ccnc1S(=O)(=O)N1CCCC[C@H]1C(=O)O[C@@H](Cc1c(Cl)c[n+]([O-])cc1Cl)c1ccc(OC(F)F)c(OCC2CC2)c1` [Compound 116, 3,5-dichloro-4-((S)-2-(3-(cyclopropylmethoxy)-4-(difluoromethoxy)phenyl)-2-((S)-1-(1-methyl-1H-imidazol-2-ylsulfonyl)piperidine-2-carbonyloxy)ethyl)pyridine 1-oxide], the 50% inhibitory concentration (IC50) was less than 0.1 nM.

As to `O=C(O[C@@H](Cc1c(Cl)c[n+]([O-])cc1Cl)c1ccc(OC(F)F)c(OCC2CC2)c1)C1SCCN1C(=O)c1cnco1` (stereo partly drawn) [Compound 35, 3,5-dichloro-4-((2S)-2-(3-(cyclopropylmethoxy)-4-(difluoromethoxy)phenyl)-2-(3-(oxazole-5-carbonyl)thiazolidine-2-carbonyloxy)ethyl)pyridine 1-oxide], the IC50 is less than 0.1 nM.

In the case of `Cc1noc2ncc(S(=O)(=O)N3CSC[C@H]3C(=O)O[C@@H](Cc3c(Cl)c[n+]([O-])cc3Cl)c3ccc(OC(F)F)c(OCC4CC4)c3)cc12` [Compound 253, 3,5-dichloro-4-((S)-2-(3-(cyclopropylmethoxy)-4-(difluoromethoxy)phenyl)-2-((R)-3-(3-methylisoxazolo[5,4-b]pyridin-5-ylsulfonyl)thiazolidine-4-carbonyloxy)ethyl)pyridine 1-oxide], the IC50 lay in the range of 0.1 to 1 nM.

Consider `Cn1ccnc1S(=O)(=O)N1CCS[C@H]1C(=O)O[C@@H](Cc1c(Cl)c[n+]([O-])cc1Cl)c1ccc(OC(F)F)c(OCC2CC2)c1` [Compound 90, 3,5-dichloro-4-((S)-2-(3-(cyclopropylmethoxy)-4-(difluoromethoxy)phenyl)-2-((S)-3-(1-methyl-1H-imidazol-2-ylsulfonyl)thiazolidine-2-carbonyloxy)ethyl)pyridine 1-oxide], for which the IC50 is less than 0.1 nM.

As for `Cc1noc2ncc(S(=O)(=O)N3CCC[C@H]3C(=O)O[C@@H](Cc3c(Cl)c[n+]([O-])cc3Cl)c3ccc(OC(F)F)c(OCC4CC4)c3)cc12` [Compound 251, 3,5-dichloro-4-((S)-2-(3-(cyclopropylmethoxy)-4-(difluoromethoxy)phenyl)-2-((S)-1-(3-methylisoxazolo[5,4-b]pyridin-5-ylsulfonyl)pyrrolidine-2-carbonyloxy)ethyl)pyridine 1-oxide], the IC50 is less than 0.1 nM.

As for `COc1ccc(S(=O)(=O)N2CCCC[C@H]2C(=O)O[C@@H](Cc2c(Cl)c[n+]([O-])cc2Cl)c2ccc(OC(F)F)c(OCC3CC3)c2)cc1OC` [Compound 98, 3,5-dichloro-4-((S)-2-(3-(cyclopropylmethoxy)-4-(difluoromethoxy)phenyl)-2-((S)-1-(3,4-dimethoxyphenylsulfonyl)piperidine-2-carbonyloxy)ethyl)pyridine 1-oxide], the IC50 was in the range of 0.1 to 1 nM.

For the compound `CN(C)C(=O)c1cccc(C(=O)N2CCC[C@@H]2C(=O)O[C@@H](Cc2c(Cl)c[n+]([O-])cc2Cl)c2ccc(OC(F)F)c(OCC3CC3)c2)c1` [Compound 185, 3,5-dichloro-4-((S)-2-(3-(cyclopropylmethoxy)-4-(difluoromethoxy)phenyl)-2-((R)-1-(3-(dimethylcarbamoyl)benzoyl)pyrrolidine-2-carbonyloxy)ethyl)pyridine 1-oxide], the IC50 lay in the range of 0.1 to 1 nM.

In the case of `Nc1cccc(S(=O)(=O)N2CCS[C@H]2C(=O)O[C@@H](Cc2c(Cl)c[n+]([O-])cc2Cl)c2ccc(OC(F)F)c(OCC3CC3)c2)c1` [Compound 140, 4-((S)-2-((S)-3-(3-aminophenylsulfonyl)thiazolidine-2-carbonyloxy)-2-(3-(cyclopropylmethoxy)-4-(difluoromethoxy)phenyl)ethyl)-3,5-dichloropyridine 1-oxide], the half-maximal inhibitory concentration (IC50) is less than 0.1 nM.

Turning to `O=C(O[C@@H](Cc1c(Cl)c[n+]([O-])cc1Cl)c1ccc(OC(F)F)c(OCC2CC2)c1)[C@@H]1SCCN1S(=O)(=O)c1cccc(CO)c1` [Compound 271, 3,5-dichloro-4-((S)-2-(3-(cyclopropylmethoxy)-4-(difluoromethoxy)phenyl)-2-((S)-3-(3-(hydroxymethyl)phenylsulfonyl)thiazolidine-2-carbonyloxy)ethyl)pyridine 1-oxide], the IC50 is less than 0.1 nM.

Turning to `O=C(O[C@@H](Cc1c(Cl)c[n+]([O-])cc1Cl)c1ccc(OC(F)F)c(OCC2CC2)c1)[C@@H]1SCCN1S(=O)(=O)CCN1CCOCC1` [Compound 287, 3,5-dichloro-4-((S)-2-(3-(cyclopropylmethoxy)-4-(difluoromethoxy)phenyl)-2-((S)-3-(2-morpholinoethylsulfonyl)thiazolidine-2-carbonyloxy)ethyl)pyridine 1-oxide], the half-inhibitory concentration (IC50) is less than 0.1 nM.

For `O=C(O[C@@H](Cc1c(Cl)c[n+]([O-])cc1Cl)c1ccc(OC(F)F)c(OCC2CC2)c1)C1SCCN1S(=O)(=O)c1cccc(F)c1` (stereo partly drawn) [Compound 60, 3,5-dichloro-4-((2S)-2-(3-(cyclopropylmethoxy)-4-(difluoromethoxy)phenyl)-2-(3-(3-fluorophenylsulfonyl)thiazolidine-2-carbonyloxy)ethyl)pyridine 1-oxide], the IC50 was 0.1 to 1 nM.

Take `O=C(O[C@@H](Cc1c(Cl)c[n+]([O-])cc1Cl)c1ccc(OC(F)F)c(OCC2CC2)c1)C1CN(S(=O)(=O)c2ccccc2)CCO1` (stereo partly drawn) [Compound 79, 3,5-dichloro-4-((2S)-2-(3-(cyclopropylmethoxy)-4-(difluoromethoxy)phenyl)-2-(4-(phenylsulfonyl)morpholine-2-carbonyloxy)ethyl)pyridine 1-oxide]: the IC50 was in the range of 0.1 to 1 nM.

For `CN(C)C(=O)c1cccc(S(=O)(=O)N2CC(C(=O)O[C@@H](Cc3c(Cl)c[n+]([O-])cc3Cl)c3ccc(OC(F)F)c(OCC4CC4)c3)C2)c1` [Compound 281, (S)-3,5-dichloro-4-(2-(3-(cyclopropylmethoxy)-4-(difluoromethoxy)phenyl)-2-(1-(3-(dimethylcarbamoyl)phenylsulfonyl)azetidine-3-carbonyloxy)ethyl)pyridine 1-oxide], the concentration for half-maximal inhibition (IC50) fell in the range of 0.1 to 1 nM.

Consider `O=C(O[C@@H](Cc1c(Cl)c[n+]([O-])cc1Cl)c1ccc(OC(F)F)c(OCC2CC2)c1)[C@@H]1SCCN1S(=O)(=O)c1cccc(OC(F)(F)F)c1` [Compound 104, 3,5-dichloro-4-((S)-2-(3-(cyclopropylmethoxy)-4-(difluoromethoxy)phenyl)-2-((S)-3-(3-(trifluoromethoxy)phenylsulfonyl)thiazolidine-2-carbonyloxy)ethyl)pyridine 1-oxide], for which the IC50 lay in the range of 0.1 to 1 nM.

For the origin of these results see patent publication US9931327B2, “Derivatives of 1-phenyl-2-pyridinyl alkyl alcohols as phosphodiesterase inhibitors” (Chiesi Farmaceutici S.p.A., priority 2011, dated 2018).
